Data: US6884577B2, “Methods for screening compounds for estrogenic activity” (The Regents of the University of California, priority 1993, dated 2005)

Legend:
[1] = test system: CHO cells, which lack functioning ER; test: Negative control: estrogen-responsive reporter constructs in CHO cells which lack functioning ER; type: cell-based; conditions: same estrogen-responsive reporter constructs
Excerpt: To examine whether the series 4 compounds induce estrogenic activity through the ER, we tested the ability of ICI 164384 to inhibit the series 4 estrogenic activity. […] As a negative control, CHO cells, which lack functioning ER, were transfected with the same estrogen-responsive reporter constructs and treated with 17β-estradiol and the series 4 hydroxystilbenes.

[2] = test system: ER at the AP1 site of the human collagenase promoter, ERC1 cells; test: Collagenase promoter-CAT reporters (Δcoll73, Δcoll60) in ERC1 cells; type: cell-based
Method: FIGS. 1A and 1B show estrogen stimulation mediated by an AP1 site in ERC1 cells (FIG. 1A) and F9 cells (FIG. 1B). Typical results of CAT assays, normalized for transfection efficiency, following a single transfection are shown opposite. Each point is the mean value of triplicate assays, with standard errors. CAT activities from cells maintained in the absence of hormone are shown as white bars, those in the presence of a saturating concentration (100 nM) of estradiol as black bars.
CAT assays were carried out as described in Webb et al., except that the cells were harvested one to two days after transfection instead of three. CAT activities were defined as the increase in cpm per hour at room temperature (corrected for background) per 100 μl of cell extract, normalized to production of 100 standard units of βHCG, from a co-transfected reporter gene, actin-HCG. Luciferase assays were performed as described by Brasier et al. Methods Enzymol 216:386-97 (1992)) on similar extracts that were used for CAT assays. Light units were defined as the luciferase activity per 100 μl of cell extract per 100 standard units of βHCG. Relative luciferase activities were calculated with respect to the results that were obtained in the absence of ER and hormone, which was set at 1 unit. For the data presented in Table I triplicate points were determined. Standard deviations were less than 20%. […]

[3] = test system: human ER at the AP-1 site of the collagenase promoter (coll73); test: Coll73-LUC luciferase reporter (collagenase promoter with AP-1 site) in cells transfected with human ER expression vector HEO; type: cell-based; conditions: relative to no ER
Method: All reporter genes described below have been modified by digestion with EcoR I and Ndel to remove a AP-I site in the backbone of pUG. […] Coll73-LUC was constructed by cloning a BamHI/Pvull fragment, that spanned the luciferase transcription unit, from pMG3 into coll73, which had been digested with BamHI and SmaI to remove the CAT transcription unit.
Cells were maintained and transfected as previously described in Webb et al., supra. […] F9 cells were seeded at 30% confluence upon 1.5 cm dishes and transfected overnight by calcium phosphate coprecipitation with 5 μg reporter gene, 1 μg actin β-HCG, and 1 μg of HEO, 300 ng each of c-jun and c-fos expression vectors. The cells were glycerol shocked and refed in growth medium containing hormone or ethanolic vehicle.
CAT assays were carried out as described in Webb et al., except that the cells were harvested one to two days after transfection instead of three. CAT activities were defined as the increase in cpm per hour at room temperature (corrected for background) per 100 μl of cell extract, normalized to production of 100 standard units of βHCG, from a co-transfected reporter gene, actin-HCG. […] Light units were defined as the luciferase activity per 100 μl of cell extract per 100 standard units of βHCG. Relative luciferase activities were calculated with respect to the results that were obtained in the absence of ER and hormone, which was set at 1 unit. For the data presented in Table I triplicate points were determined.
In each case, the cells were transfected with different amounts of the human ER expression vector HEO to determine the optimal response.

MCF-7 cell = conditions: Braacke et al. 1991; cited from earlier work

In the case of C[C@]12CC[C@@H]3c4ccc(O)cc4CC[C@H]3[C@@H]1CC[C@@H]2O [estradiol, 17β-estradiol], the “estrogenic activity in cells lacking functioning ER” value [1] is reported as “no estrogenic activity”, the “estrogen response of Δcoll60 (AP1 site removed)” value [2] is reported as “no estrogen response” and the “stimulation of Δcoll73 (CAT)” value ([2]; 100 nM estradiol, FIG. 1A) is reported as “ten fold”. The “Coll73 Luciferase Activity” value ([3]; CEF (fibroblast), no hormone, saturating hormone) was 2.5, the “Coll73 Luciferase Activity” value ([3]; CHO (ovary), no hormone, saturating hormone) was 3.3 and the “Coll73 Luciferase Activity” value ([3]; CV-1 (kidney), no hormone, saturating hormone) was 2.2. For the same molecule, the “Coll73 Luciferase Activity” value ([3]; F9 (teratocarcinoma), no hormone, unliganded ER gave 3.2) was 1.4, the “Coll73 Luciferase Activity” value ([3]; HELA (cervix), no hormone = 1, ICI 1 μM, tamoxifen 5 μM, estradiol 100 nM) was 3.4 and the “Coll73 Luciferase Activity” value ([3]; HEP G2 (liver), no hormone, saturating hormone) was 4.3. The “Coll73 Luciferase Activity” value ([3]; MDA453 (breast), no hormone, saturating hormone) was 8.4, the “Coll73 Luciferase Activity” value ([3]; NIH 3T3 (fibroblast), no hormone, saturating hormone) was 3.3 and the “Coll73 Luciferase Activity” value ([3]; SHM (myometrium), no hormone, saturating hormone) was 2.0. The “Coll73 Luciferase Activity” value ([3]; SY5Y (neuroblastoma), no hormone, saturating hormone) was 2.1 and the “MCF-7 cell invasion activity of a re-constituted basement membrane” value (MCF-7 cell) was “stimulated”.
